In patent US11555036B2, “FGFR4 inhibitor, preparation method therefor and pharmaceutical use thereof” (Abbisko Therapeutics Co., Ltd., priority 2016, dated 2023):

Legend:
FGFR4 = FGFR4 (Homo sapiens, UniProt P22455); assay: FGFR4 Caliper Assay (in vitro biochemical kinase analysis of FGFR4); details: read-out: Enzymatic activity FGFR4 IC50
Procedure: I. In Vitro Biochemical Kinase Analysis of FGFR4
FGFR4 Caliper Assay was used in the present invention to determine the inhibitory activities of the compounds against FGFR4. The detailed experimental procedure was as follows.
2. A reaction system is a mixture solution of 50 mM HEPES, pH 7.5, 1 mM DTT, 0.02% Tween 20, 0.02% BSA, 0.6% DMSO, 10 mM beta glycerol phosphate and 10 μM sodium orthovanadate and 16 mM MgCl2.
3. The reaction system was incubated at 30° C. for 40 minutes.
4. The reaction was terminated by adding a stop solution (100 mM HEPES, pH 7.5, 5% DMSO, 0.1% Caliper coating reagent, 10 mM EDTA and 0.015% Brij35).
5. The culture plate with the terminated kinase reaction was transferred to the Caliper LC 3000 workstation to read the data, the phosphorylated and unphosphorylated peptides were separated by using the Caliper microfluid migration shift technique, and the analyte was transferred by allowing a constant buffer flow through the chip, the migration of the substrate peptide was monitored by the labeled fluorescent signal, and the kinase activity was calculated by using the amount of the phosphate-based peptide formed.
6. Finally, IC50 values were determined by non-linear regression analysis of percent inhibition at different compound concentrations.

[1] = system: Huh7 hepatocellular carcinoma cells; assay: FGFR4 cell proliferation experiment, Cell Titer Glo (CTG); format: cell-based; details: HuH-7 cells, 3 days; for IC50: concentration leading to absolute half growth inhibition; for EC50: concentration leading to half maximal growth inhibition
Procedure: II. FGFR4 Cell Proliferation Experiment
Cell Titer Glo (CTG) experiment was used in the present invention to evaluate the functional effects of the compounds on cell proliferation. […] Compound-mediated inhibition of cell proliferation/survival was assessed by quantification of cellular ATP levels using CTG reagent (Promega, #G7573). The specific experimental procedure was as follows:
2. 10 μL of medium containing a compound concentration of 10 fold of its final test concentration was added;
3. The dose effect was evaluated by a 5-fold serial dilution of the test compound, starting from 10 μM.
4. After cells incubation for 3 days at 37° C. under 5% CO2, the effect of the inhibitor on cell proliferation was quantified after adding 50 μL of CTG and testing with luminescence.

Sequence of FGFR4 (P22455 22-802): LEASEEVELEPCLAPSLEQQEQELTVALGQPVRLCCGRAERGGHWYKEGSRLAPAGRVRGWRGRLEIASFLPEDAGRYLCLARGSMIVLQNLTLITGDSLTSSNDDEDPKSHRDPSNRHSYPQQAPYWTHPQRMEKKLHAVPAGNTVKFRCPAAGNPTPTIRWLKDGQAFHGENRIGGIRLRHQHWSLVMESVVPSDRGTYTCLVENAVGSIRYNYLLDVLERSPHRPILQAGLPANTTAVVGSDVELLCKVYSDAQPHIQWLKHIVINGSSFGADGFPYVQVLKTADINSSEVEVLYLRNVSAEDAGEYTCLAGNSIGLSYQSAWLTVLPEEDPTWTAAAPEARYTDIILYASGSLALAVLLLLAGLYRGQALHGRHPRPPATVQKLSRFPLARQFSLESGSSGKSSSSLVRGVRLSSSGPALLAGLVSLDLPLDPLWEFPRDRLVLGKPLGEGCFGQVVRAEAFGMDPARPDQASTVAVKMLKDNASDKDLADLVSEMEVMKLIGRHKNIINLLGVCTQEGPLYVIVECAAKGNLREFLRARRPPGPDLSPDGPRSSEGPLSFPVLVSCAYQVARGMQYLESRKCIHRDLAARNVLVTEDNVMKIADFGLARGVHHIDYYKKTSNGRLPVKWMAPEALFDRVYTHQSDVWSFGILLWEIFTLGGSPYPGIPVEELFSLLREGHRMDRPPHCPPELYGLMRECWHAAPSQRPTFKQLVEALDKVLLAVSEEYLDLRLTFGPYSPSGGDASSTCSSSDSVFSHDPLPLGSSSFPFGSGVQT

Molecule	IC50 (FGFR4) [nM]	IC50 ([1]; Homo sapiens, Huh-7, 72 h) [nM]	EC50 ([1]; Homo sapiens, Huh-7, 72 h) [nM]	IC50 [1] [nM]	EC50 [1] [nM]
C=CC(=O)N[C@H]1CCOC[C@H]1Nc1ncc2cc(-c3c(F)c(OC)cc(OC)c3F)nc(N3CCOCC3)c2n1 [Example 789, N-((3S,4)S-3-((6-(2,6-difluoro-3,5-dimethoxyphenyl)-8-morpholinopy-rido[3,4-d]pyrimidin-2-yl)amino)tetra-hydro-2H-pyran-4-yl)acrylamide]	7.8	15.9	12.6		
C=CC(=O)N[C@H]1COC[C@H]1Nc1ncc2cc(-c3c(Cl)c(OC)cc(OC)c3Cl)nc(C3=CCOCC3)c2n1 [Example 756, N-((3R,4S)-4-((6-(2,6-dichloro-3,5-dimethoxyphenyl)-8-(3,6-dihydro-2H-pyran-4-yl)pyrido[3,4-d]pyrimidin-2-yl)amino)tetrahydrofuran-3-yl)acryl-amide]	20.2	31	19		
C=CC(=O)N[C@H]1COC[C@H]1Nc1ncc2cc(-c3c(F)c(OC)cc(OC)c3F)nc(N3CCOCC3)c2n1 [Example 687, N-((3R,4S)-4-((6-(2,6-difluoro-3,5-dimethoxyphenyl)-8-morpholino-pyrido[3,4-d]pyrimidin-2-yl)a-mino)tetrahydrofuran-3-yl)acrylamide]	6.3	10	6.9		
N-((3S,4S)-3-((6-(2,6-dichloro-3,5-di- methoxyphenyl)-8-(methylamino)py- rido[3,4-d]pyrimidin-2-yl)amino)tetra- hydro-2H-pyran-4-yl)acrylamide [Example 510]	29			116	75.2
C=CC(=O)Nc1cn(C)nc1Nc1ncc2cc(-c3c(Cl)c(OC)cc(OC)c3Cl)ncc2n1 [Example 64, N-(3-((6-(2,6-dichloro-3,5-dimethoxyphenyl)pyrido[3,4-d]pyrimidin-2-yl)amino)-1-methyl-1H-pyrazol-4-yl) acrylamide]	53.3	268	54.2		
C=CC(=O)N[C@H]1COC[C@H]1Nc1ncc2cc(-c3c(Cl)c(OC)cc(OC)c3Cl)nc(N3CC4(CCOCC4)C3)c2n1 [Example 776, N-((3R,4S)-4-((6-(2,6-dichloro-3,5-dimethoxyphenyl)-8-(7-oxa-2-azaspiro [3.5]nonan-2-yl)pyrido[3,4-d]pyrimi-din-2-yl)amino)tetrahydrofuran-3-yl)acrylamide]	4.9			9.4	7.9
C=CC(=O)N[C@H]1COC[C@H]1Nc1ncc2cc(-c3c(Cl)c(OC)cc(OC)c3Cl)nc(NCC3CC3)c2n1 [Example 421, N-((3R,4S)-4-((8-((cyclopropylmethyl)amino)-6-(2,6-dichloro-3,5-dimethoxyphenyl)pyrido[3,4-d]pyrimidin-2-yl)amino)tetrahydrofuran-3-yl)acrylamide]	12.4	10	5.4		
[2H]C([2H])([2H])Nc1nc(-c2c(Cl)c(OC)cc(OC)c2Cl)cc2cnc(N[C@@H]3COC[C@@H]3NC(=O)C=C)nc12 [Example 771, N-((3R,4S)-4-((6-(2,6-dichloro-3,5-dimethoxyphenyl)-8-((methyl-d3)ami-no)pyrido[3,4-d]pyrimidin-2-yl)ami-no)tetrahydrofuran-3-yl)acrylamide]	7.9	32.3	25.5		
C=CC(=O)N[C@H]1COC[C@H]1Nc1ncc2cc(-c3c(Cl)c(OC)cc(OC)c3Cl)nc(N3CCC3)c2n1 [Example 657, N-((3R,4S)-4-((8-(azetidin-1-yl)-6-(2,6-dichloro-3,5-dimethoxyphenyl)py-rido[3,4-d]pyrimidin-2-yl)amino)tetra-hydrofuran-3-yl)acrylamide]	6.5	13.3	9.6		
C=CC(=O)N[C@H]1COC[C@H]1Nc1ncc2cc(-c3c(Cl)c(OC)cc(OC)c3Cl)nc(N3CC(CO)(CO)C3)c2n1 [Example 759, N-((3R,4S)-4-((8-(3,3-bis(hydroxy-methyl)azetidin-1-yl)-6-(2,6-dichloro-3,5-dimethoxyphenyl)pyrido[3,4-d]py-rimidin-2-yl)amino)tetrahydrofuran-3-yl)acrylamide]	5.7	61.1	42.2		
[2H]C([2H])([2H])Oc1cc(OC([2H])([2H])[2H])c(Cl)c(-c2cc3cnc(N[C@@H]4COC[C@@H]4NC(=O)C=C)nc3c(OCC)n2)c1Cl [Example 754, N-((3R,4S)-4-((6-(2,6-dichloro-3,5-bis(methoxy-d3)phenyl)-8-ethoxy-pyrido[3,4-d]pyrimidin-2-yl)amino)tetra-hydrofuran-3-yl)acrylamide]	13.6	54	18		
C=CC(=O)NCc1cc2c(cn1)cc(-c1c(Cl)c(OC)cc(OC)c1Cl)c(=O)n2C [Example 730, N-((3-(2,6-dichloro-3,5-dimethoxyphenyl)-1-methyl-2-oxo-1,2-dihydro-1,6-naphthyridin-7-yl)methyl)acrylamide]	115	194	164		
C=CC(=O)N[C@H]1CCOC[C@H]1Nc1ncc2cc(-c3c(F)c(OC)cc(OC)c3F)nc(N3CC(F)(F)C3)c2n1 [Example 791, N-((3S,4S)-3-((6-(2,6-difluoro-3,5-dimethoxyphenyl)-8-(3,3-difluoroazet-idin-1-yl)pyrido[3,4-d]pyrimidin-2-yl)amino)tetrahydro-2H-pyran-4-yl)acrylamide]	3.7	8.4	6.4		
C=CC(=O)N[C@H]1COC[C@H]1Nc1ncc2cc(-c3c(Cl)c(OC)cc(OC)c3Cl)nc(N3CC(OC)C3)c2n1 [Example 658, N-((3R,4S)-4-((6-(2,6-dichloro-3,5-dimethoxyphenyl)-8-(3-methoxyazeti-din-1-yl)pyrido[3,4-d]pyrimidin-2-yl)amino)tetrahydrofuran-3-yl)acryl-amide]	4.8	15.1	11.4		
C=CC(=O)N[C@H]1COC[C@H]1Nc1ncc2cc(-c3c(F)c(OC)cc(OC)c3F)ncc2n1 [Example 120, N-((3R,4S)-4-((6-(2,6-difluoro-3,5-dime-thoxyphenyl)pyrido[3,4-d]pyrimidin-2-yl)amino)tetrahydrofuran-3-yl)acrylamide]	303	754	156		
C=CC(=O)N[C@H]1COC[C@H]1Nc1ncc2cc(-c3c(Cl)c(OC)cc(OC)c3Cl)nc(NC3CCOC3)c2n1 (stereo partly drawn) [Example 443, N-((3R,4S)-4-((6-(2,6-dichloro-3,5-di-methoxyphenyl)-8-((tetrahydrofuran-3-yl)amino)pyrido[3,4-d]pyrimidin-2-yl)amino)tetrahydrofuran-3-yl) acrylamide]	8.2	70.8	15.9		
C=CC(=O)N[C@H]1COC[C@H]1Nc1ncc2cc(-c3c(Cl)c(OC)cc(OC)c3Cl)nc(N3CC4CC3CO4)c2n1 (stereo partly drawn) [Example 763, N-((3R,4S)-4-((8-(2-oxa-5-azabicyclo[2.2.1]heptan-5-yl)-6-(2,6-dichloro-3,5-dimethoxyphenyl)py-rido[3,4-d]pyrimidin-2-yl)a-mino)tetrahydrofuran-3-yl)acrylamide]	7.9	11.1	7.8		
C=CC(=O)N[C@H]1CCOC[C@H]1Nc1ncc2cc(-c3c(F)c(OC)cc(OC)c3F)nc(N3CCC3)c2n1 [Example 792, N-((3S,4S)-3-((8-(azetidin-1-yl)-6-(2,6-difluoro-3,5-dimethoxyphenyl)py-rido[3,4-d]pyrimidin-2-yl)amino)tetra-hydro-2H-pyran-4-yl)acrylamide]	3.1	6.2	4.8		
